What all share (type): in vivo, Swiss albino mice
The subject of assay [1] is Superoxide dismutase (SOD) activity in liver. Kind of assay: Superoxide dismutase activity in liver of mice after restraint stress. The note with it: 25 mg/Kg p.o. 7 days, control 0.6. As to the method: (§1) Swiss albino mice (20±2 g) were fed orally with—(a) 3-OH-DBP and (b) 3,8-(OH)2-DBP (each 25 mg/Kg b.w. per day, for 7 days). In case of the controls, only vehicle (0.8% carboxymethyl cellulose in water) was administered for seven days of the experiment. All the animals of all the groups were subjected to restraint stress (for 60 minutes) on the seventh day of the experiment, 2 hours after drug administration, according to a published method [Figueiredo, H. F., Bodie, B. L., Tauchi, M., Dolgas, C. M. and Herman, J. P. 2003. Endocrinology, 144, 5249-5258]. The model was selected in the present experiment, because restraint stress is a widely used model of acute oxidative stress. Immediately after being exposed to stress, the animals were sacrificed, blood was collected for analysis by HPLC of ATP and related nucleotides [Smolenska, Z., Kaznowska, Z., Zarowny, D., Simmonds, H. A. and Smolenski, R. T. 1999. […] AEC (adenylate energy charge) was calculated according to the method of Atkinson and Walton [Atkinson D E & Walton G M, Adenosine triphosphate conservation in metabolic regulation, J Biol Chem, 242 (1967) 3239] and TAN (total adenine nucleotides) was calculated according to an established method [Spencer M K & Katz A, Role of glycogen in control of glycolysis and IMP formation in human muscle during exercise, Am J Physiol, 260 (1991) E859]. […]

The test system of assay [2] is Blood levels of ATP and energy related indices. Kind of assay: Blood ATP and energy related indices in mice after forced swimming stress. As to the method:
Swiss albino mice (20±2 g) were fed orally with—(a) 3,8-(OH)2-DBP and (b) 3-OH-DBP (each 25 mg/Kg b.w.), per day, for 7 days. In case of the controls, only vehicle (0.8% carboxymethyl cellulose in water) was administered for seven days of the experiment. The animals were subjected to ‘forced swimming’ for 30 minutes on the 7th day of the experiment [Pliakas, A. M., Carlson, R. R., Neve, R. L., Konradi, C., Nestler, E. J. and Carlezon, W. A. 2001. J. Neurosci., 21(18), 7397-7403]. Immediately after the swimming, blood was collected from all the animals for analysis of ATP and related nucleotides by HPLC [Smolenska, Z., Kaznowska, Z., Zarowny, D., Simmonds, H. A. and Smolenski, R. T. 1999. Rheumatology, 38, 997-1002; Komarova, S. V., Mosharov, E. V., Vitvitsky, V. M. and Ataullakhanov, F. I. 1999. Blood Cell Mol. Dis., 25(13), 170-179; Marquardt, D. L., Gruber, H. E. and Wasserman, S. I. 1984. Proc. Natl. Acad. Sci., 81, 6192-6196]. AEC (adenylate energy charge) was calculated according to the method of Atkinson and Walton [Atkinson D E & Walton G M, Adenosine triphosphate conservation in metabolic regulation, J Biol Chem, 242 (1967) 3239] and TAN (total adenine nucleotides) was calculated according to an established method [Spencer M K & Katz A, Role of glycogen in control of glycolysis and IMP formation in human muscle during exercise, Am J Physiol, 260 (1991) E859].

For assay [3] the test system is unchanged. Kind of assay: Blood ATP and energy related indices in mice after restraint stress. The note with it: 25 mg/Kg p.o. 7 days. Here is the method: Swiss albino mice (20±2 g) were fed orally with—(a) 3-OH-DBP and (b) 3,8-(OH)2-DBP (each 25 mg/Kg b.w. per day, for 7 days). In case of the controls, only vehicle (0.8% carboxymethyl cellulose in water) was administered for seven days of the experiment. All the animals of all the groups were subjected to restraint stress (for 60 minutes) on the seventh day of the experiment, 2 hours after drug administration, according to a published method [Figueiredo, H. F., Bodie, B. L., Tauchi, M., Dolgas, C. M. and Herman, J. P. 2003. Endocrinology, 144, 5249-5258]. The model was selected in the present experiment, because restraint stress is a widely used model of acute oxidative stress. Immediately after being exposed to stress, the animals were sacrificed, blood was collected for analysis by HPLC of ATP and related nucleotides [Smolenska, Z., Kaznowska, Z., Zarowny, D., Simmonds, H. A. and Smolenski, R. T. 1999. Rheumatology, 38, 997-1002; Komarova, S. V., Mosharov, E. V., Vitvitsky, V. M. and Ataullakhanov, F. I. 1999. Blood Cell Mol. Dis., 25(13), 170-179; Marquardt, D. L., Gruber, H. E. and Wasserman, S. I. 1984. Proc. Natl. Acad. Sci., 81, 6192-6196], and liver was collected for measurement of superoxide dismutase and catalase activities [Zielinski, S, and Pörtner, H. 2000. Comparative Biochem. Physiol. Part B, 125, 147-[60]. AEC (adenylate energy charge) was calculated according to the method of Atkinson and Walton [Atkinson D E & Walton G M, Adenosine triphosphate conservation in metabolic regulation, J Biol Chem, 242 (1967) 3239] and TAN (total adenine nucleotides) was calculated according to an established method [Spencer M K & Katz A, Role of glycogen in control of glycolysis and IMP formation in human muscle during exercise, Am J Physiol, 260 (1991) E859].

In assay [4] the test system is Catalase activity in liver. Kind of assay: Catalase activity in liver of mice after restraint stress. The following applies: 25 mg/Kg p.o. 7 days, control 3.9. As to the method:
as §1

For the compound `O=c1oc2cc(O)ccc2c2ccccc12` [3-OH-DBP, 3-hydroxydibenzo-α-pyrone], the “SOD activity in liver” value in assay [1] is recorded as 0.91 U/gm tissue. In addition, the “content of ATP, AEC values and ATP/ADP ratio (in blood), in words” value in assay [2] (albino mice engaged in forced swimming) was “significantly improved”. The ATP in assay [2] (blood, forced swimming, 25 mg/Kg p.o. 7 days, mean ± SEM of 6, control 0.60 ± 0.01) is reported as 0.72 ± 0.03 µM; in assay [3] (mean ± SEM of 6, control 0.67 ± 0.03) it was 0.66 ± 0.04 µM. In addition, the TAN in assay [2] (blood, forced swimming, 25 mg/Kg p.o. 7 days, mean ± SEM of 6, control 0.79 ± 0.01) is reported as 0.90 ± 0.04 µM; in assay [3] (mean ± SEM of 6, control 0.76 ± 0.03) it was 0.79 ± 0.05 µM. Besides, the AEC in assay [2] (blood, forced swimming, 25 mg/Kg p.o. 7 days, mean ± SEM of 6, control 0.86 ± 0.003) is recorded as 0.89 ± 0.002; in assay [3] (mean ± SEM of 6, control 0.89 ± 0.01), 0.90 ± 0.01. The ATP/ADP ratio in assay [2] (blood, forced swimming, 25 mg/Kg p.o. 7 days, mean ± SEM of 6, control 3.84 ± 0.09) turned out to be 4.82 ± 0.09; in assay [3] (mean ± SEM of 6, control 4.90 ± 0.32) it was 7.04 ± 0.38. Moreover, in assay [3] (mean ± SEM of 6, control 0.14 ± 0.02), the ADP stood at 0.09 ± 0.01 µM. For the same compound, the “Catalase activity in liver” value in assay [4] is listed as 3.5 U/mg tissue.

Source of the values: US8894993B2, “Mitochondria-targeted antioxidants” (Natreon Inc., priority 2006, dated 2014).
